Source: patent EP4707277A1, “NOVEL HETEROCYCLIC AMINE DERIVATIVES AND PHARMACEUTICAL COMPOSITION COMPRISING SAME” (Daewoong Pharmaceutical Co., Ltd., priority 2023, dated 2024)

What was measured:
BTK = target: T1, BTK (Homo sapiens, UniProt Q06187); experiment: Inhibitory activity against BTK, ADP-Glo Kinase system (Promega); assay type: biochemical; conditions: 1mM ATP; read-out: BTK IC50(nM) 1mM ATP
T1 construct: purchased Signalchem B10-10H
Procedure, shortened: (§1)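 ADP-Glo luminescent ADP detection with recombinant human ITK (4 ng/reaction) or BTK (10 ng/reaction) and poly(Glu4,Tyr1) substrate at 0.2 µg/µl. Buffer: Tris pH 7.5, MgCl2, MnCl2, BSA, DTT. ATP 1 mM or Km (BTK 10 µM, ITK 25 µM); 1% DMSO; 1 h at 30°C; IC50 from curve fit.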

ITK = target: T2, ITK (Homo sapiens, UniProt Q08881); experiment: Inhibitory activity against ITK, ADP-Glo Kinase system (Promega); assay type: biochemical; conditions: 1mM ATP; read-out: ITK IC50(nM) 1mM ATP
T2 construct: purchased Signalchem I13-11G-10
T2 sequence (Q08881 1-620): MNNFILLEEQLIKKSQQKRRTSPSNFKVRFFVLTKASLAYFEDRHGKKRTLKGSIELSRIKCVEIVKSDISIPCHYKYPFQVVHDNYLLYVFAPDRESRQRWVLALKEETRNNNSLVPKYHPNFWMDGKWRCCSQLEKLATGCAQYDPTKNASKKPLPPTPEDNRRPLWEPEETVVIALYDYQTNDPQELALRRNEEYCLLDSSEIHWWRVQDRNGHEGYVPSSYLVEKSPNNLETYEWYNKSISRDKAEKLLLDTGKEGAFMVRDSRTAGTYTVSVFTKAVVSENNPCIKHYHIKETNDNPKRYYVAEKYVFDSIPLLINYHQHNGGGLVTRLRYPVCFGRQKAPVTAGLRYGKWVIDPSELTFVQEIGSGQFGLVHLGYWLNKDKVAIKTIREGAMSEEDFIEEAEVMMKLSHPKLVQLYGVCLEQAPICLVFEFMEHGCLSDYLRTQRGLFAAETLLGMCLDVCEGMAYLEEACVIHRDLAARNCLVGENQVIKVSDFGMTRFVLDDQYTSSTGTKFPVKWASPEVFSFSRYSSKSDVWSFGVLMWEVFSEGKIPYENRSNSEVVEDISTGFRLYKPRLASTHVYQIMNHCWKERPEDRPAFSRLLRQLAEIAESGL
Procedure, shortened: as §1

T1 sequence (Q06187 whole entry): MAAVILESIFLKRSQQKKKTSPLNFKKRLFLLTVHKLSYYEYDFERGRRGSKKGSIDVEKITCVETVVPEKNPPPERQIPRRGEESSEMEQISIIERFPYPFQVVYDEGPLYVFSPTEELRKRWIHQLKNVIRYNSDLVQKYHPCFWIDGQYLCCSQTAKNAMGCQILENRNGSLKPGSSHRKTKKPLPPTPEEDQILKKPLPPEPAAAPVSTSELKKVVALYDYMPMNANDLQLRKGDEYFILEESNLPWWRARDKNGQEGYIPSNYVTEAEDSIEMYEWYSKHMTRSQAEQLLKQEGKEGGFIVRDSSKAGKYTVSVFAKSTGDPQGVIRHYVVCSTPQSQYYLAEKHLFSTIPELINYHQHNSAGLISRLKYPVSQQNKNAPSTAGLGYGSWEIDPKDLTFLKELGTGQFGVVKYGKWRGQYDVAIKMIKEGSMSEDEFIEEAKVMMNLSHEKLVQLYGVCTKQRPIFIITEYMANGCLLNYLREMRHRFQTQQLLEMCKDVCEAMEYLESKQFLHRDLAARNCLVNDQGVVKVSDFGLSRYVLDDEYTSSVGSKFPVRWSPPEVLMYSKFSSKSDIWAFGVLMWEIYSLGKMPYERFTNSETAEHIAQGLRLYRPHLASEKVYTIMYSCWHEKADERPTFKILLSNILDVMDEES

C=CC(=O)N1C[C@@H](Oc2nc(Nc3ncc(C)s3)cc3c2ccn3C(C)C)C[C@@H]1C [Example 88, 1-((2S,4S)-4-((1-isopropyl-6-((5-methylthiazol-2-yl)amino)-1H-pyrrolo[3,2-c]pyridin-4-yl)oxy)-2-methylpyrrolidin-1-yl)prop-2-en-1-one]
IC50 (BTK): ≤ 20 nM | IC50 (ITK): ≤ 20 nM

C=CC(=O)N1CCC[C@@H]1COc1nc(Nc2ncc(C)s2)cc2c1ccn2C(C)C [Example 89, (R)-1-(2-(((1-isopropyl-6-((5-methylthiazol-2-yl)amino)-1H-pyrrolo[3,2-c]pyridin-4-yl)oxy)methyl)pyrrolidin-1-yl)prop-2-en-1-one]
IC50 (BTK): ≤ 20 nM | IC50 (ITK): 20 to 100 nM

C=CC(=O)N1CC[C@@H]1COc1nc(Nc2ncc(C)s2)cc2c1ccn2C(C)C [Example 90, (R)-1-(2-(((1-isopropyl-6-((5-methylthiazol-2-yl)amino)-1H-pyrrolo[3,2-c]pyridin-4-yl)oxy)methyl)azetidin-1-yl)prop-2-en-1-one]
IC50 (BTK): ≤ 20 nM | IC50 (ITK): ≤ 20 nM

C=CC(=O)N1C[C@@H](F)[C@H](Oc2nc(Nc3ncc(C)s3)cc3c2ccn3C(C)C)C1 [Example 91, 1-((3R,4R)-3-fluoro-4-((1-isopropyl-6-((5-methylthiazol-2-yl)amino)-1H-pyrrolo[3,2-c]pyridin-4-yl)oxy)pyrrolidin-1-yl)prop-2-en-1-one]
IC50 (BTK): ≤ 20 nM | IC50 (ITK): ≤ 20 nM

C=CC(=O)N1CC(F)(F)C[C@@H]1COc1nc(Nc2ncc(C)s2)cc2c1ccn2C(C)C [Example 93, (R)-1-(4,4-difluoro-2-(((1-isopropyl-6-((5-methylthiazol-2-yl)amino)-1H-pyrrolo[3,2-c]pyridin-4-yl)oxy)methyl)pyrrolidin-1-yl)prop-2-en-1-one]
IC50 (BTK): ≤ 20 nM | IC50 (ITK): ≤ 20 nM

C=CC(=O)N1C[C@@H](OC)C[C@@H]1COc1nc(Nc2ncc(C)s2)cc2c1ccn2C(C)C [Example 94, 1-((2R,4S)-2-(((1-isopropyl-6-((5-methylthiazol-2-yl)amino)-1H-pyrrolo[3,2-c]pyridin-4-yl)oxy)methyl)-4-methoxypyrrolidin-1-yl)prop-2-en-1-one]
IC50 (BTK): ≤ 20 nM | IC50 (ITK): ≤ 20 nM

C=CC(=O)N1CC[C@H](Oc2nc(Nc3cc(C(F)(F)F)ncn3)cc3c2ccn3C(C)C)C1 [Example 95, (S)-1-(3-((1-isopropyl-6-((6-(trifluoromethyl)pyrimidin-4-yl)amino)-1H-pyrrolo[3,2-c]pyridin-4-yl)oxy)pyrrolidin-1-yl)prop-2-en-1-one]
IC50 (BTK): ≤ 20 nM | IC50 (ITK): 100 to 500 nM

C=CC(=O)N1C[C@@H](Oc2nc(Nc3ncc(C)s3)cc3c2ccn3CC(C)C)C[C@H]1C [Example 96, 1-((2R,4S)-4-((1-isobutyl-6-((5-methylthiazol-2-yl)amino)-1H-pyrrolo[3,2-c]pyridin-4-yl)oxy)-2-methylpyrrolidin-1-yl)prop-2-en-1-one]
IC50 (BTK): ≤ 20 nM | IC50 (ITK): ≤ 20 nM

C=CC(=O)N1CC[C@H](Oc2nc(Nc3ncc(C)s3)cc3c2ccn3CC2CC2)C1 [Example 97, (S)-1-(3-((1-(cyclopropylmethyl)-6-((5-methylthiazol-2-yl)amino)-1H-pyrrolo[3,2-c]pyridin-4-yl)oxy)pyrrolidin-1-yl)prop-2-en-1-one]
IC50 (BTK): ≤ 20 nM | IC50 (ITK): ≤ 20 nM

C=CC(=O)N1C[C@@H](Oc2nc(Nc3ncc(C)s3)cc3c2ccn3CC2CC2)C[C@H]1C [Example 98, 1-((2R,4S)-4-((1-(cyclopropylmethyl)-6-((5-methylthiazol-2-yl)amino)-1H-pyrrolo[3,2-c]pyridin-4-yl)oxy)-2-methylpyrrolidin-1-yl)prop-2-en-1-one]
IC50 (BTK): ≤ 20 nM | IC50 (ITK): ≤ 20 nM

C=CC(=O)N1CC[C@H](Oc2nc(Nc3ncc(C)s3)cc3c2ccn3C2CCCC2)C1 [Example 99, (S)-1-(3-((1-cyclopentyl-6-((5-methylthiazol-2-yl)amino)-1H-pyrrolo[3,2-c]pyridin-4-yl)oxy)pyrrolidin-1-yl)prop-2-en-1-one]
IC50 (BTK): ≤ 20 nM | IC50 (ITK): ≤ 20 nM
